From ChEMBL document CHEMBL1201862, “PubChem BioAssay data set” (2004)
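Following 48 hours of exposure in 96-well plates, responses at five concentrations were used to interpolate endpoints linearly. Here, GI50 denotes the concentration required for 50% inhibition of growth.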 Calls of active or inactive are those of the source. Rule as the data show it: active = GI50 up to about 1.1 µM and inactive = higher.

How the values were obtained:
Assay in all cases: NCI anticancer screen, dose series, 48 h
CAKI-1 = tested on: CAKI-1
COLO 205 = tested on: COLO 205
EKVX = tested on: EKVX
HCC 2998 = tested on: HCC 2998
HL-60 = tested on: HL-60
HOP-92 = tested on: HOP-92
HT-29 = tested on: HT-29
MCF7 = tested on: MCF7
MDA-MB-231 = tested on: MDA-MB-231
Malme-3M = tested on: Malme-3M
NCI-H23 = tested on: NCI-H23
OVCAR-4 = tested on: OVCAR-4
OVCAR-8 = tested on: OVCAR-8
RPMI-8226 = tested on: RPMI-8226
SF-539 = tested on: SF-539
SK-MEL-28 = tested on: SK-MEL-28
SK-MEL-5 = tested on: SK-MEL-5
SNB-19 = tested on: SNB-19
TK-10 = tested on: TK-10
UACC-62 = tested on: UACC-62

Measured: GI50

CC(C)C[S+]1C2=C(CC(C)(C)CC2=O)[N-]c2ccccc21 (stereo not given)
inactive: CAKI-1 > 100 µM | COLO 205 > 100 µM | EKVX > 100 µM | HCC 2998 > 100 µM | HL-60 > 100 µM | HOP-92 > 100 µM | HT-29 > 100 µM | MCF7 > 100 µM | MDA-MB-231 > 100 µM | Malme-3M > 100 µM | NCI-H23 > 100 µM | OVCAR-4 > 100 µM | OVCAR-8 > 100 µM | RPMI-8226 > 100 µM | SF-539 > 100 µM | SK-MEL-28 > 100 µM | SK-MEL-5 > 100 µM | SNB-19 > 100 µM | TK-10 > 100 µM | UACC-62 > 100 µM

CSc1nc(SC)c2c(C)cn(COCCOC(=O)c3ccccc3)c2n1
inactive: CAKI-1 > 100 µM | COLO 205 > 100 µM | EKVX > 100 µM | HCC 2998 > 100 µM | HL-60 36.7 µM | HOP-92 41.5 µM | HT-29 > 100 µM | MCF7 76.4 µM | MDA-MB-231 > 100 µM | Malme-3M > 100 µM | NCI-H23 > 100 µM | OVCAR-4 > 100 µM | OVCAR-8 > 100 µM | RPMI-8226 69.5 µM | SF-539 27.3 µM | SK-MEL-28 > 100 µM | SK-MEL-5 > 100 µM | SNB-19 > 100 µM | TK-10 > 100 µM | UACC-62 > 100 µM

Cc1cc(S(=O)(=O)Nc2nnc3c(Cl)cc(C(F)(F)F)cn23)c(S)cc1Cl
inactive: CAKI-1 > 89.3 µM | COLO 205 > 68.4 µM | EKVX 75 µM | HCC 2998 44.8 µM | HL-60 > 100 µM | HOP-92 > 100 µM | HT-29 37.2 µM | MCF7 > 61.1 µM | MDA-MB-231 > 59.3 µM | Malme-3M 91 µM | NCI-H23 95.1 µM | OVCAR-4 66.5 µM | OVCAR-8 50.4 µM | RPMI-8226 > 100 µM | SF-539 35.7 µM | SK-MEL-28 > 100 µM | SK-MEL-5 22.8 µM | SNB-19 25.1 µM | TK-10 > 100 µM | UACC-62 48.9 µM

Oc1ccc(SCc2cc(O)ccc2O)cc1
inactive: CAKI-1 6.14 µM | COLO 205 19.2 µM | EKVX 18.9 µM | HCC 2998 22.8 µM | HL-60 2.85 µM | HOP-92 22.3 µM | HT-29 36 µM | MCF7 12.6 µM | MDA-MB-231 16.5 µM | Malme-3M 19.5 µM | NCI-H23 28.5 µM | OVCAR-4 5.5 µM | OVCAR-8 16.5 µM | RPMI-8226 2.67 µM | SF-539 3.54 µM | SK-MEL-28 17.7 µM | SK-MEL-5 10 µM | SNB-19 23.7 µM | TK-10 18.4 µM | UACC-62 17.1 µM

OC(c1cc(C(O)(C(F)(F)F)C(F)(F)F)ncn1)(C(F)(F)F)C(F)(F)F
inactive: CAKI-1 > 10 µM | COLO 205 > 10 µM | EKVX > 10 µM | HCC 2998 > 10 µM | HL-60 > 10 µM | HOP-92 > 10 µM | HT-29 > 10 µM | MCF7 > 10 µM | MDA-MB-231 > 10 µM | Malme-3M > 10 µM | NCI-H23 > 10 µM | OVCAR-4 > 10 µM | OVCAR-8 > 10 µM | RPMI-8226 > 10 µM | SF-539 > 10 µM | SK-MEL-28 > 10 µM | SK-MEL-5 > 10 µM | SNB-19 > 10 µM | TK-10 > 10 µM | UACC-62 > 10 µM

COc1cc(OC)cc(-c2cc(=O)c3c(OC)c(OC)c(OC)c(OC)c3o2)c1
inactive: CAKI-1 > 100 µM | COLO 205 16.3 µM | EKVX 29.2 µM | HCC 2998 31.7 µM | HL-60 7.26 µM | HOP-92 16.7 µM | HT-29 28.7 µM | MCF7 63.7 µM | MDA-MB-231 59.7 µM | Malme-3M 31.6 µM | NCI-H23 52.1 µM | OVCAR-4 22.9 µM | OVCAR-8 33.6 µM | RPMI-8226 16.9 µM | SF-539 80 µM | SK-MEL-28 40.3 µM | SK-MEL-5 19.8 µM | SNB-19 38.5 µM | TK-10 70.6 µM | UACC-62 31.9 µM

Cc1[nH]n(-c2nc(-c3ccccc3)cc(=O)[nH]2)c(=O)c1CCO
inactive: CAKI-1 > 100 µM | COLO 205 > 100 µM | EKVX > 100 µM | HCC 2998 > 100 µM | HL-60 > 100 µM | HOP-92 > 100 µM | HT-29 > 100 µM | MCF7 > 100 µM | MDA-MB-231 > 100 µM | Malme-3M > 100 µM | NCI-H23 > 100 µM | OVCAR-4 > 100 µM | OVCAR-8 > 100 µM | RPMI-8226 > 100 µM | SF-539 > 100 µM | SK-MEL-28 > 100 µM | SK-MEL-5 > 100 µM | SNB-19 > 100 µM | TK-10 > 100 µM | UACC-62 > 100 µM
